Test results as given in patent US20260274853A1, “BIFUNCTIONAL COMPOUNDS CONTAINING PYRIMIDINE DERIVATIVES FOR DEGRADING CYCLIN-DEPENDENT KINASE 2 VIA UBIQUITIN PROTEASOME PATHWAY” (NIKANG THERAPEUTICS, INC., priority 2022, published 2026).

Legend:
CDK2 [1] = target: T1, CDK2 (Homo sapiens, UniProt P24941); experiment: Inhibition of CDK2: phospho-Rb (S807/811) HTRF measurement in OVCAR3 cells; assay type: cell-based; conditions: 24 h compound treatment, read-out: pRb (nM), IC50 in pRB(S807/811) assay
T1 construct: High-Throughput Measurement of Cellular Endogenous CDK2; endogenous in cells; host or cells: OVCAR3

CDK2 [2] = target: T1, CDK2; experiment: CDK2 HTRF assay: cellular endogenous CDK2 level in OVCAR3 cells; assay type: cell-based; conditions: 24 hours compound treatment, read-out: DC50 (half maximal degradation concentration of CDK2)
Outline: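 Endogenous CDK2 degradation in OVCAR3 cells after 24 h compound treatment at 0.3–10,000 nM. Lysates assayed with an HTRF total-CDK2 two-antibody kit, TR-FRET 665/620 ratio normalized to DMSO. DC50 from four-parameter logistic fit, reported as potency bins.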

| SMILES | IC50 (CDK2 [1]) | DC50 (CDK2 [2]) |
| --- | --- | --- |
| O=C1CCC(NS(=O)(=O)N2CCC(Nc3ncc(C(F)(F)F)c(-c4cnn(CC(F)(F)F)c4)n3)CC2)C(=O)N1 (centres unmarked) [Example 83, N-(2,6-dioxopiperidin-3-yl)-4-((4-(1-(2,2,2-trifluoroethyl)-1H-pyrazol-4-yl)-5-(trifluoromethyl)pyrimidin-2-yl)-amino)piperidine-1-sulfonamide] | 100 to 500 nM | < 100 nM |
| Cn1nc(N2CCC(=O)NC2=O)c2ccc(C3CCN(C(c4cccc(S(=O)(=O)N5CCC(Nc6ncc(C(F)(F)F)c(-c7cnn(CC(F)(F)F)c7)n6)CC5)c4)C(F)F)CC3)cc21 (centres unmarked) [Example 84, 1-(6-(1-(2,2-difluoro-1-(3-((4-((4-(1-(2,2,2-trifluoroethyl)-1H-pyrazol-4-yl)-5-(trifluoromethyl)pyrimidin-2-yl)amino)-piperidin-1-yl)sulfonyl)-phenyl)ethyl)-piperidin-4-yl)-1-methyl-1H-indazol-3-yl)dihydropyrimidine-2,4(1H,3H)-dione] | < 100 nM | < 100 nM |
| Cn1nc(N2CCC(=O)NC2=O)c2ccc(N3CCN(CC4CCN(S(=O)(=O)N5CCC(Nc6ncc(C(F)(F)F)c(-c7cnn(CC(F)(F)F)c7)n6)CC5)CC4)CC3)cc21 [Example 86, 1-(1-methyl-6-(4-((1-((4-((4-(1-(2,2,2-trifluoroethyl)-1H-pyrazol-4-yl)-5-(trifluoromethyl)pyrimidin-2-yl)-amino)piperidin-1-yl)sulfonyl)-piperidin-4-yl)methyl)piperazin-1-yl)-1H-indazol-3-yl)dihydropyrimidine-2,4(1H,3H)-dione] | < 100 nM | < 100 nM |
| Cn1nc(N2CCC(=O)NC2=O)c2ccc(C3CCN(CC4CCN(S(=O)(=O)N5CCC(Nc6ncc(C(F)(F)F)c(-c7cnn(CC(F)(F)F)c7)n6)CC5)C4)CC3)cc21 (centres unmarked) [Example 88, 1-(1-methyl-6-(1-((1-((4-((4-(1-(2,2,2-trifluoroethyl)-1H-pyrazol-4-yl)-5-(trifluoromethyl)pyrimidin-2-yl)amino)-piperidin-1-yl)sulfonyl)-pyrrolidin-3-yl)methyl)piperidin-4-yl)-1H-indazol-3-yl)dihydropyrimidine-2,4(1H,3H)-dione] | < 100 nM | < 100 nM |
| Cn1nc(N2CCC(=O)NC2=O)c2ccc(C3CCN(CC4CCCC(S(=O)(=O)N5CCC(Nc6ncc(C(F)(F)F)c(-c7cnn(CC(F)(F)F)c7)n6)CC5)C4)CC3)cc21 (centres unmarked) [Example 89, 1-(1-methyl-6-(1-((3-((4-((4-(1-(2,2,2-trifluoroethyl)-1H-pyrazol-4-yl)-5-(trifluoromethyl)pyrimidin-2-yl)amino)-piperidin-1-yl)sulfonyl)-cyclohexyl)-methyl)piperidin-4-yl)-1H-indazol-3-yl)dihydropyrimidine-2,4(1H,3H)-dione] | < 100 nM | < 100 nM |
| Cn1nc(N2CCC(=O)NC2=O)c2ccc(C3CCN(CC(C)(C)c4cccc(S(=O)(=O)N5CCC(Nc6ncc(C(F)(F)F)c(-c7cnn(CC(F)(F)F)c7)n6)CC5)c4)CC3)cc21 [Example 90, 1-(1-methyl-6-(1-(2-methyl-2-(3-((4-((4-(1-(2,2,2-trifluoroethyl)-1H-pyrazol-4-yl)-5-(trifluoromethyl)-pyrimidin-2-yl)-amino)piperidin-1-yl)sulfonyl)phenyl)-propyl)piperidin-4-yl)-1H-indazol-3-yl)-dihydro-pyrimidine-2,4(1H,3H)-dione] | < 100 nM | < 100 nM |
| Cn1nc(N2CCC(=O)NC2=O)c2ccc(N3CCC(CN4CCC(S(=O)(=O)N5CCC(Nc6ncc(C(F)(F)F)c(-c7cnn(CC(F)(F)F)c7)n6)CC5)CC4)CC3)cc21 [Example 92, 1-(1-methyl-6-(4-((4-((4-((4-(1-(2,2,2-trifluoroethyl)-1H-pyrazol-4-yl)-5-(trifluoromethyl)pyrimidin-2-yl)amino)-piperidin-1-yl)sulfonyl)-piperidin-1-yl)methyl)piperidin-1-yl)-1H-indazol-3-yl)dihydropyrimidine-2,4(1H,3H)-dione] | < 100 nM | < 100 nM |

The remaining lines, values ahead:

| IC50 (CDK2 [1]) | DC50 (CDK2 [2]) | SMILES |
| --- | --- | --- |
| < 100 nM | < 100 nM | Cn1c(S(=O)(=O)N2CCC(Nc3ncc(C(F)(F)F)c(-c4cnn(CC(F)(F)F)c4)n3)CC2)cnc1CN1CCN(c2ccc3c(N4CCC(=O)NC4=O)nn(C)c3c2)CC1 [Example 69, 1-(1-methyl-6-(4-((1-methyl-5-((4-((4-(1-(2,2,2-trifluoroethyl)-1H-pyrazol-4-yl)-5-(trifluoromethyl)pyrimidin-2-yl)amino)-piperidin-1-yl)sulfonyl)-1H-imidazol-2-yl)methyl)piperazin-1-yl)-1H-indazol-3-yl)dihydropyrimidine-2,4(1H,3H)-dione] |
| < 100 nM | < 100 nM | O=C1CCC(NC2CCN(Cc3cccc(S(=O)(=O)N4CCC(Nc5ncc(C(F)(F)F)c(-c6cnn(CC(F)(F)F)c6)n5)CC4)c3)CC2)C(=O)N1 (centres unmarked) [Example 72, 3-((1-(3-((4-((4-(1-(2,2,2-trifluoro-ethyl)-1H-pyrazol-4-yl)-5-(trifluoromethyl)-pyrimidin-2-yl)amino)-piperidin-1-yl)-sulfonyl)benzyl)piperidin-4-yl)amino)-piperidine-2,6-dione] |
| < 100 nM | < 100 nM | Cn1nc(N2CCC(=O)NC2=O)c2cc(F)c(N3CCN(Cc4cccc(S(=O)(=O)N5CC[C@H](Nc6ncc(C(F)(F)F)c(-c7cnn(CC(F)(F)F)c7)n6)[C@H](F)C5)c4)CC3)cc21 [Example 73, 1-(5-fluoro-6-(4-(3-(((3R,4S)-3-fluoro-4-((4-(1-(2,2,2-trifluoroethyl)-1H-pyrazol-4-yl)-5-(trifluoromethyl)pyrimidin-2-yl)amino)piperidin-1-yl)sulfonyl)-benzyl)piperazin-1-yl)-1-methyl-1H-indazol-3-yl)dihydropyrimidine-2,4(1H,3H)-dione] |
| < 100 nM | < 100 nM | Cn1nc(N2CCC(=O)NC2=O)c2ccc(C3CCN(Cc4cccc(S(=O)(=O)[C@H]5CC[C@H](Nc6ncc(C(F)(F)F)c(-c7cnn(CC(F)(F)F)c7)n6)CC5)c4)CC3)cc21 [Example 74, 1-(1-methyl-6-(1-(3-(((1r,4r)-4-((4-(1-(2,2,2-trifluoroethyl)-1H-pyrazol-4-yl)-5-(trifluoromethyl)pyrimidin-2-yl)-amino)cyclohexyl)sulfonyl)benzyl)-piperidin-4-yl)-1H-indazol-3-yl)dihydro-pyrimidine-2,4(1H,3H)-dione] |
| < 100 nM | < 100 nM | Cc1ncsc1-c1ccc([C@H](C)NC(=O)[C@@H]2C[C@@H](O)CN2C(=O)[C@@H](NC(=O)C2(F)CC2)C(C)(C)SCC2CCN(Cc3cccc(S(=O)(=O)N4CCC(Nc5ncc(C(F)(F)F)c(-c6cnn(CC(F)(F)F)c6)n5)CC4)c3)CC2)cc1 [Example 77, (2S,4R)-1-((R)-2-(1-fluorocyclopropane-1-carboxamido)-3-methyl-3-(((1-(3-((4-((4-(1-(2,2,2-trifluoroethyl)-1H-pyrazol-4-yl)-5-(trifluoromethyl)pyrimidin-2-yl)-amino)piperidin-1-yl)sulfonyl)-benzyl)-piperidin-4-yl)methyl)thio)-butanoyl)-4-hydroxy-N-((S)-1-(4-(4-methylthiazol-5-yl)phenyl)ethyl)-pyrrolidine-2-carboxamide] |
| < 100 nM | < 100 nM | CC(Cc1cccc(S(=O)(=O)N2CCC(Nc3ncc(C(F)(F)F)c(-c4cnn(CC(F)(F)F)c4)n3)CC2)c1)CN1CCC(c2ccc3c(N4CCC(=O)NC4=O)nn(C)c3c2)CC1 (centres unmarked) [Example 78, 1-(1-methyl-6-(1-(2-methyl-3-(3-((4-((4-(1-(2,2,2-trifluoroethyl)-1H-pyrazol-4-yl)-5-(trifluoromethyl)-pyrimidin-2-yl)amino)piperidin-1-yl)sulfonyl)-phenyl)propyl)piperidin-4-yl)-1H-indazol-3-yl)dihydro-pyrimidine-2,4(1H,3H)-dione] |
| < 100 nM | < 100 nM | CN1CCC(n2cc(-c3nc(NC4CCN(S(=O)(=O)c5cccc(CN6CCC(c7ccc8c(N9CCC(=O)NC9=O)nn(C)c8c7)CC6)c5)CC4)ncc3C(F)(F)F)cn2)CC1 [Example 79, 1-(1-methyl-6-(1-(3-((4-((4-(1-(1-methylpiperidin-4-yl)-1H-pyrazol-4-yl)-5-(trifluoromethyl)pyrimidin-2-yl)-amino)piperidin-1-yl)sulfonyl)-benzyl)-piperidin-4-yl)-1H-indazol-3-yl)dihydro-pyrimidine-2,4(1H,3H)-dione] |
| < 100 nM | < 100 nM | O=C1CCN(C2CCN(Cc3cccc(S(=O)(=O)N4CCC(Nc5ncc(C(F)(F)F)c(-c6cnn(CC(F)(F)F)c6)n5)CC4)c3)C2)C(=O)N1 (centres unmarked) [Example 81, 1-(1-(3-((4-((4-(1-(2,2,2-trifluoro-ethyl)-1H-pyrazol-4-yl)-5-(trifluoromethyl)-pyrimidin-2-yl)amino)-piperidin-1-yl)sulfonyl)benzyl)-pyrrolidin-3-yl)-dihydropyrimidine-2,4(1H,3H)-dione] |
| < 100 nM | < 100 nM | Cn1nc(N2CCC(=O)NC2=O)c2ccc(N3CC4CC(C3)N4Cc3cccc(S(=O)(=O)N4CC[C@H](Nc5ncc(C(F)(F)F)c(-c6cnn(CC(F)(F)F)c6)n5)[C@H](F)C4)c3)cc21 [Example 82, 1-(6-(6-(3-(((3R,4S)-3-fluoro-4-((4-(1-(2,2,2-trifluoroethyl)-1H-pyrazol-4-yl)-5-(trifluoromethyl)pyrimidin-2-yl)amino)-piperidin-1-yl)sulfonyl)-benzyl)-3,6-diazabicyclo[3.1.1]heptan-3-yl)-1-methyl-1H-indazol-3-yl)dihydro-pyrimidine-2,4(1H,3H)-dione] |
